Patent US20240415804A1, “METHOD OF TREATING PANCREATIC CANCER” (University of South Florida, priority 2022, published 2024)

Tests used:
miR-155 = miR-155 gene expression by RT-qPCR in UN-KC-6141 cells; format: cell-based, mouse; conditions: API 40 μM, 24 h, vs DMSO vehicle
Procedure: MiR-155 is known to be overexpressed in different cancers, including PC^21, 23. The inventors first assessed whether apigenin could modulate the expression of miR-155 in PC cells. Murine PC cell lines Panc02 and UN-KC-6141 as well as the human PC cell line MiaPaCa-2 were treated with API (40 μM) or DMSO vehicle for 24 h and the expression of miR-155 was examined using RT-qPCR assay. […] Since API is known to inhibit the growth of cancer cells, including PC cells^39-43, 47-50, the same PC cell lines were treated with API (40 μM) or DMSO (vehicle) for 24 h and examined cell viability using MTT assay. […] Moreover, Panc02 and UN-KC-6141 cells were then treated with API at a dose dependent concentration (10, 20, 30, 40, 50 μM) and detected apoptosis using flow cytometry (Annexin V and PI).
miR-155 is implicated in the development of pancreatic tumors from pancreatic intraepithelial neoplasia (PanIN) lesions, and is overexpressed in PC^23. The inventors examined whether the depletion of miR-155 modulated PC viability. Murine and human PC cell lines were transfected with miR-155 inhibitor (i.e., MMU-MIR-155-5P/HSA-MIR-155-5P) and scrambled miRNA at a concentration of 100 nM for 24 h and cell viability determined using an MTT assay. The expression of miR-155 was examined using an RT-qPCR assay as well. […]

Panc02 cells = test: MTT cell viability assay, Panc02; format: cell-based, mouse; conditions: API 40 μM, 24 h, vs DMSO vehicle
Procedure: The methyl thiazol tetrazolium (MTT) assay was performed as described previously^58. Briefly, MiaPaCa-2, Panc02 and UN-KC-6141 cells were seeded in 96-well plates at a density of 3000 cells/well and allowed to attach overnight. PC cells were then treated with API (40 μM) or DMSO (1%) as vehicle control for 24 h at 37° C. in 5% CO2 incubator. After 24 h, media was replaced with 20 μL of MTT (1 mg/mL) (Sigma-Aldrich) and incubated for 3 h at 37° C. in 5% CO2. MTT was replaced with DMSO, and absorbance was read at 570 nm.
MiaPaCa-2, Panc02 and UN-KC-6141 cells (2×10^5) were grown in 2 mL of growth medium in a 6-well tissue culture plate for 18-24 h until 60-80% confluency. The following solutions were prepared: Solution A) For each transfection, diluted 1 μL of miRNA-155 inhibitors (1 μM) (Table 2) or scrambled negative control miRNA (1 μM) (Qiagen, Germantown, MD, USA) into 50 μL Opti-MEM Transfection Medium (Invitrogen, Waltham, MA, USA). Solution B) For each transfection, diluted 3 μL of Hi-Perfect Transfection Reagent into 50 μL Opti-MEM Transfection Medium. Solution A was added directly to Solution B, mixed gently and the mixture incubated for 10-15 min at room temperature. […]

For `O=c1cc(-c2ccc(O)cc2)oc2cc(O)cc(O)c12` [API, 40,5,7-Trihydroxyflavone, 5,7-Dihydroxy-2-(4-hydroxyphenyl)-4-benzopyrone], the miR-155 gene expression (miR-155) was “significantly suppressed” and the “cell viability (MTT)” value (Panc02 cells) was “significantly inhibited”.
